# Reference: paper PMC6888386, “Identification of Novel 1,3,5-Triphenylbenzene Derivative Compounds as Inhibitors of Hen Lysozyme Amyloid Fibril Formation” (International Journal of Molecular Sciences, 2019)
# Assays:
# [1] = test system: caspase-3 activity in SH-SY5Y cells; assay: Caspase-3 activity after exposure to HEWL aggregates; format: cell-based, human; conditions: 24 h; for Prevention of the apoptotic response (caspase-3 activation) induced by aggregates: 2 µM HEWL aggregates formed in the presence of 0.32 µM compound
# Protocol: (§1) We then assessed the cytotoxicity of HEWL aggregates, formed in the absence or presence of compounds 1–6, according to the aggregation protocol described for the ThT experiments. HEWL aggregates were collected by centrifugation, dried under N2, dissolved in cell culture medium, and added to SH-SY5Y human neuroblastoma cells at a concentration of 2 µM (monomer equivalents). The ability of the resulting aggregates to cause cellular dysfunction was assessed by performing the MTT reduction inhibition assay, a widely used indicator of mitochondrial dysfunction. […] Very similar results were obtained by measuring the activity of caspase-3, a well-recognized apoptotic marker. A significant activation of caspase-3 (320 ± 12%, as compared to untreated cells) was observed following treatment for 24 h of SH-SY5Y cells with HEWL aggregates at 2 µM (Figure 7B).
# (§2) Authenticated human neuroblastoma SH-SY5Y cells were purchased from American Type Culture Collection (ATCC) (Manassas, VA, USA) and they tested negative for mycoplasma contaminations. SH-SY5Y cells were cultured in Dulbecco’s modified Eagle’s medium (DMEM), F-12 Ham with 25 mM HEPES and NaHCO3 (1:1) supplemented with 10% fetal bovine serum (FBS), 1.0 mM glutamine and 1.0% penicillin and streptomycin solution. Cells were maintained in a 5.0% CO2 humidified atmosphere at 37 °C and grown until 80% confluence for a maximum of 20 passages.
# HEWL aggregates were formed in the absence or in the presence of 0.32 µM of compounds 1–6 as described in the previous section and then added to the cell culture medium of SH-SY5Y cells seeded on glass coverslips for 24 h at 2 μM (monomer equivalents). Caspase-3 activity was then analyzed by using FAM FLICA^TM caspases 3 & 7 solution (caspase 3 & 7 FLICA kit FAM-DEVDFMK, Immunochemistry Technologies, LLC, Bloomington, MN, USA). Cell fluorescence was analyzed by the TCS SP8 scanning confocal microscopy system (Leica Microsystems, Mannheim, Germany) equipped with an argon laser source, as previously reported. A series of 1.0 μm thick optical sections (1024 × 1024 pixels) was taken through the cell depth for each sample using a Leica Plan Apo 63 × oil immersion objective for fluorescence measurement at 488 nm. The confocal microscope was set at optimal acquisition conditions, e.g., pinhole diameters, detector gain, and laser powers. Settings were maintained constant for each analysis.
# [2] = target: T1, hen egg white lysozyme (HEWL) (Gallus gallus, UniProt P00698); assay: Congo red (CR) assay of HEWL aggregation; format: biochemical; conditions: 0.32 µM compound; for CR absorbance relative to that measured in the absence of the compounds: HEWL pre-incubated 48 h under aggregating conditions
# T1 construct: Hen egg white lysozyme (HEWL), thioflavin T (ThT), and Congo red (CR) were purchased from Sigma-Aldrich; purchased Sigma-Aldrich (St. Louis, MO, USA); host or cells: hen egg white (per the product name)
# Protocol: Aliquots of the same samples used for ThT experiments were also used to carry out the CR assays. […] The higher CR absorbance obtained in the presence of HEWL is likely to originate from the presence of protein aggregates that scatter light, whereas the red shift of the peak from 490 to 520–540 nm indicates the presence of β-sheet containing aggregates.
# (§3) HEWL concentration was determined by optical absorption at 280 nm (ε280 = 2.65 L·g^−1·cm^−1). HEWL was dissolved to a concentration of 2 mg/mL (140 µM) in 50 mM glycine buffer, pH 2.5, centrifuged for 10 min at 13,000 rpm, then incubated at 57 °C for the specified time lengths in the absence or presence of the indicated concentrations of compounds 1–6, under gentle stirring at 250 rpm by a Teflon magnetic bar.
# Since compounds 1–6 have optical absorption spectra partially overlapped to that of CR, all protein samples were centrifuged at 10,000 rpm and the pellets resuspended in 50 mM glycine buffer, pH 2.5, at room temperature. A mother solution of 20 mM CR was prepared in 5 mM sodium phosphate buffer, 150 mM NaCl, pH 7.4, it was then filtered using a center-glass N4 filter and stored at 4 °C, until it was placed at room temperature immediately before use. At different time points during protein aggregation, a 60 μL aliquot of resuspended protein solution was mixed with 440 μL of CR solution. Optical absorption spectra were acquired after 2–3 min equilibration at 25 °C, using a Cecil 7200 UV–visible spectrophotometer (Aquarius, Cambridge, England) and a 1 cm path-length cell.
# [3] = test system: SH-SY5Y human neuroblastoma cells; assay: MTT reduction test with HEWL aggregates; format: cell-based; conditions: for Rescue of cell viability (MTT reduction): 2 µM HEWL aggregates formed in the presence of 0.32 µM compound
# Protocol: as §1, §2
# HEWL samples pre-incubated for 48 h under aggregating conditions in the absence or presence of 0.32 µM compounds 1–6 were centrifuged and the pellets were dried under N2 to remove any compounds and DMSO, dissolved in cell culture medium at a final HEWL concentration of 2 μM (monomer equivalents), and added to SH-SY5Y cells seeded in 96-well plates for 24 h at 37 °C. The cell medium was then removed and the MTT solution (0.5 mg/mL in RPMI) was added to the cells for 4 h. The medium was then aspirated, and the formazan product was solubilized with cell lysis buffer (20% SDS, 50% N, N-dimethylformamide, pH 4.7) for 1 h, as previously described.
# [4] = target: T1, hen egg white lysozyme (HEWL); assay: ThT fluorescence assay of HEWL amyloid fibril formation; format: biochemical; conditions: 48 h; for IC50: HEWL 2 mg/mL (140 µM), 50 mM glycine buffer pH 2.5, 57 °C, stirring 250 rpm, compound 0.03-2.6 µM, Figure 2, read-out: IC50 of prevention of HEWL amyloid fibril formation; for Relative efficacy as inhibitor in terms of IC50 value: HEWL 140 µM, pH 2.5, 57 °C
# Protocol: The inhibition potential of the six compounds was determined using the ThT fluorescence assay to measure the amount of amyloid aggregates after the addition of various concentrations of each compound ranging from 0.03 to 2.6 µM. Aggregation of HEWL was induced by incubating the protein for 48 h at a concentration of 2 mg/mL (140 µM) in 50 mM glycine buffer, pH 2.5, and 57 °C, while stirred gently by magnetic bars (rpm 250), in the absence or presence of 0.03–2.6 µM compounds 1–6. […] The IC50 values of the compounds, corresponding to the concentration at which the inhibitory effect is half of the maximum effect, were determined (Figure 2).
# as §3
# A mother solution of 2.5 mM ThT was prepared in 10 mM sodium phosphate buffer, 150 mM NaCl, pH 7.0. It was then passed through a 0.45 μm filter paper and stored at 4 °C until it was placed at room temperature immediately before use. At regular time intervals, a 10 µL aliquot of protein solution was mixed with 990 μL of ThT solution in a 10 × 10 mm quartz cuvette and the fluorescence emission spectra were recorded at room temperature using a Cary Eclipse VARIAN fluorescence spectrophotometer (Varian, Mulgrave, Australia) and an excitation wavelength of 440 nm.
# [5] = target: T1, hen egg white lysozyme (HEWL); assay: FTIR spectroscopy of HEWL aggregates; format: biochemical; conditions: 0.32 µM compound, 48 h, resuspended in D2O
# Protocol: New samples of HEWL aggregates with or without compounds 1–6 at a concentration of 0.32 µM were prepared, under the same conditions as those used for ThT and CR experiments, centrifuged after 48 h to collect the aggregates, resuspended at high concentration in D2O and analyzed with FTIR spectroscopy, to determine the effects of the six compounds on the secondary structure of the HEWL aggregates. […] Another peak is present at ca. 1650 cm^−1 attributable to either unordered or α-helical secondary structure.
# Samples were incubated for 48 h to promote aggregation as described above in the presence of 0.32 µM compounds 1–6, centrifuged at 13,000× g for 10 min and resuspended in D2O to a final volume of 72.8 μL, to reach a final concentration of 27.8 mg/mL. For each sample, 40 μL was deposited onto an Omni-Cell transmission cell with a 25 μm spacer (Specac, Orpington, UK), and Fourier-transform infrared (FTIR) spectra were recorded using a FTS-40 FTIR spectrometer (Bio-Rad, Hercules, CA, USA) purged with a continuous flow of dry air. Sixty-four interferograms were accumulated in each case at a spectral resolution of 1 cm^−1. The FTIR absorbance spectra were blank-subtracted and baseline-corrected to reveal the amide I region (1600–1700 cm^−1). […]
# [6] = target: T1, hen egg white lysozyme (HEWL); assay: Atomic force microscopy of HEWL aggregates; format: biochemical; conditions: 0.32 µM compound, HEWL 140 µM, pH 2.5, 57 °C, 48 h
# Protocol: In order to define further the nature of the aggregated species, an analysis of their morphologies was carried out using AFM. HEWL was incubated under the same aggregation conditions used for the ThT, CR, and FTIR experiments, i.e., for 48 h at a concentration of 2 mg/mL (140 µM) in 50 mM glycine buffer, pH 2.5, and 57 °C, under stirring (250 rpm), in the absence or presence of 0.32 µM of compounds 1–6 and the resulting samples were examined by AFM (Figure 6). […] Rather, oligomeric and/or amorphous species were predominant.
# HEWL samples pre-incubated for 48 h under aggregating conditions with or without 0.32 µM compounds 1–6 were diluted 100 times in filtered deionized water. A 5 µL aliquot of each of the resulting samples was placed on freshly cleaved mica at room temperature. After a few minutes, the mica was slowly washed with 100 μL of deionized water and dried with N2. Each image was acquired in a non-contact mode at a scan speed of 30 μm/s, loop filter of 3 Hz and force of 200 nN with a Dual Scope Probe Scanner (Veeco, model Auto probe, CP-Research, CA, USA) with an area of 5 × 5 μm^2. Conical shape silicon tips (MikroMasch NSC16) with a resonance frequency of 150 kHz and a nominal constant of 40 N/m were used. Fifteen images were collected for each compound.
# [7] = 24 h, 2 µM (monomer equivalents) HEWL aggregates formed in the presence of 0.32 µM compound
# [8] = 24 h exposure, 2 µM (monomer equivalents), no compound
# T1 sequence (P00698 19-147): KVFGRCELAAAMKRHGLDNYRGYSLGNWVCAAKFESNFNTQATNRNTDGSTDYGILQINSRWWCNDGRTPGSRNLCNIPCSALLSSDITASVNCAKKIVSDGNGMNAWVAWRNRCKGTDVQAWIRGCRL
Compound,CR absorbance relative to that measured in the absence of the compounds [2],IC50 [4] [nM],melting point [°C],Relative efficacy as inhibitor in terms of IC50 value [4],"Change of secondary structure of HEWL aggregates (amide I, loss of β-sheet) [5]","Absorbance peak at 540 nm in CR difference spectra ([2]; 48 h, spectrum of CR alone subtracted)",Prevention of the apoptotic response (caspase-3 activation) induced by aggregates [1],"MTT reduction relative to untreated cells [3, 7] [%]",Rescue of cell viability (MTT reduction) ([3]; 24 h),Morphology of HEWL aggregates by AFM [6],"Activation of caspase-3 as compared to untreated cells ([1]; HEWL aggregates at 2 µM, no compound) [%]","MTT reduction relative to untreated cells [3, 8]"
"c1ccc(-c2cc(-c3ccccc3)cc(-c3ccccc3)c2)cc1 [Compound 1, 1,3,5-triphenylbenzene]",lower,100,171 to 173,–,–,–,significantly prevented,92.7 ± 3.2,–,–,–,–
"O=[N+]([O-])c1ccc(-c2cc(-c3ccc([N+](=O)[O-])cc3)cc(-c3ccc([N+](=O)[O-])cc3)c2)cc1 [Compound 3, 1,3,5-tris(4-nitrophenyl)benzene]",lower,190,151 to 152,–,–,–,only a slight protective effect,–,partial rescue,–,–,–
"HEWL aggregates: hen egg white lysozyme aggregates formed 48 h at pH 2.5, 57 °C in the absence of compounds",–,–,–,–,–,–,–,–,–,–,320 ± 12,73.9 ± 2.1%
native HEWL: native hen egg white lysozyme,–,–,–,–,–,–,–,–,–,–,–,unaffected

# Now from value to compound, other results behind:
CR absorbance relative to that measured in the absence of the compounds [2],IC50 [4] [nM],melting point [°C],Relative efficacy as inhibitor in terms of IC50 value [4],"Change of secondary structure of HEWL aggregates (amide I, loss of β-sheet) [5]","Absorbance peak at 540 nm in CR difference spectra ([2]; 48 h, spectrum of CR alone subtracted)",Compound,Prevention of the apoptotic response (caspase-3 activation) induced by aggregates [1],"MTT reduction relative to untreated cells [3, 7] [%]",Rescue of cell viability (MTT reduction) ([3]; 24 h),Morphology of HEWL aggregates by AFM [6],"Activation of caspase-3 as compared to untreated cells ([1]; HEWL aggregates at 2 µM, no compound) [%]","MTT reduction relative to untreated cells [3, 8]"
lower,50,238 to 240,best inhibitor,most remarkable change,–,"Fc1ccc(-c2cc(-c3ccc(F)cc3)cc(-c3ccc(F)cc3)c2)cc1 [Compound 2, 1,3,5-tris(4-fluorophenyl)benzene]",significantly prevented,96.2 ± 3.2,–,–,–,–
lower,400,178 to 179,–,–,–,"Cc1ccc(-c2cc(-c3ccc(C)cc3)cc(-c3ccc(C)cc3)c2)cc1 [Compound 4, 1,3,5-tris(4-methylphenyl)benzene]",significantly prevented,–,partial rescue,–,–,–
lower,200,142 to 143,–,–,–,"COc1ccc(-c2cc(-c3ccc(OC)cc3)cc(-c3ccc(OC)cc3)c2)cc1 [Compound 5, 1,3,5-tris(4-methoxyphenyl)benzene]",significantly prevented,93.9 ± 2.9,–,a few short fibrillar assemblies along with oligomeric species,–,–
markedly higher,980,237 to 239,minimum effect,–,only a modest decrease,"Oc1ccc(-c2cc(-c3ccc(O)cc3)cc(-c3ccc(O)cc3)c2)cc1 [Compound 6, 1,3,5-tris(4-hydroxyphenyl)benzene]",only a slight protective effect,–,partial rescue,a mixture of unbranched filamentous assemblies,–,–
